In brackets after ≈: the same amount, converted by molar mass.
Experiments:
[1] = system: pathogenic microaerobic bacteria (causing dental caries); assay: Broth microdilution MIC, summary in text; assay type: cell-based; conditions: range over compounds and strains; read-out: MIC against pathogenic microaerobic bacteria
Source text: (§1) Panel reference strains of bacteria from the American Type Culture Collection or Polish Collection of Microorganisms, including aerobic Gram-positive bacteria: Staphylococcus aureus ATCC 25923 and Staphylococcus epidermidis ATCC 12228, and aerobic Gram-negative bacteria: Escherichia coli ATCC 25922 and Pseudomonas aeruginosa ATCC 9027, as well as microaerobic Gram-positive bacteria: Lactobacillus spp., Lactobacillus acidophilus PCM 2105, Streptococcus mutans PCM 2502 and Streptococcus sanguinis PCM 2335, were used. Microbial suspensions with an optical density of 0.5 McFarland standard at 1.5 × 10^8 CFU/mL (CFU: colony forming unit) were prepared in sterile 0.9 % NaCl. Mueller–Hinton (M–H) broth and M–H agar (Oxoid Ltd., England) for aerobic strains, and MRS Broth Lactobacillus, MRS Agar Lactobacillus (BioMaxima S.A., Poland), BHI Broth and BHI agar (BioMaxima S.A., Poland) for microaerobic strains were used in the microbial tests.
(§2) A broth microdilution method was used to evaluate the minimum inhibition concentration (MIC) according to the CLSI document (CLSI performance standards for antimicrobial susceptibility testing, 2008, Eighteenth International Supplement, CLSI document M7-MIC, Clinical Laboratory Standards Institute, Wayne) with some modifications. […] A serial doubling dilution of the compounds was prepared in 96-well plates (200 μL per well). A suitable medium (M-H Broth, MRS Broth Lactobacillus, BHI Broth) was used as a diluent. The final concentrations of derivatives were 1000–0.015 μg/mL. Finally, 2 μL of inoculum of the tested bacterial strain (1.5 × 10^8 CFU/mL) was added to each well. The tests were performed either at 36 °C for 18 h (aerobic strains) or at 40 h (microaerobic strains). After incubation, the panel was digitally analyzed at 600 nm using the microplate reader Bio Tech Synergy (USA) with a dedicated software system. The growth intensity in each well was compared with the negative and positive controls.

[2] = system: aerobic Gram-positive bacteria; assay: Broth microdilution MIC, summary in text; assay type: cell-based; conditions: range over compounds and strains; read-out: MIC against aerobic Gram-positive bacteria
Source text: as §1, §2

[3] = system: Pseudomonas aeruginosa ATCC 9027; assay: Disk diffusion, zone of bacterial growth inhibition; assay type: cell-based; conditions: for zone of inhibition at 100 µg/disc: Pseudomonas aeruginosa, ATCC9027, 100 μg of compound, read-out: Zone of bacterial growth inhibition, P.a
Source text: as §1
(§3) The preliminary antibacterial activity of the carbazide derivatives against human pathogenic Gram-positive, Gram-negative aerobic and microaerobic bacteria was evaluated by measuring the zones of inhibition in the disk diffusion method (Murray et al., [1995]). Each compound (100 µg) was placed on Petri plates with agar medium (previously inoculated with 0.5 McFarland standards with the tested bacterial strains). After 18 h of incubation at 37 °C (for aerobic strains) or 40 h at 35 °C (for microaerobic strains), zones of microbial growth produced around the tested substances were measured and recorded as the diameters of inhibition.

[4] = system: Escherichia coli ATCC 25922; assay: as above; assay type: cell-based; conditions: for zone of inhibition at 100 µg/disc: Escherichia coli, ATCC25922, 100 μg of compound, read-out: Zone of bacterial growth inhibition, E.c
Source text: as §1, §3

[5] = system: Staphylococcus aureus ATCC 25923; assay: as above; assay type: cell-based; conditions: for zone of inhibition at 100 µg/disc: Staphylococcus aureus, ATCC25923, 100 μg of compound, read-out: Zone of bacterial growth inhibition, S.a
Source text: as §1, §3

[6] = system: Streptococcus mutans PCM 2502; assay: as above; assay type: cell-based; conditions: for zone of inhibition at 100 µg/disc: Streptococcus mutans, PCM2502, 100 μg of compound, read-out: Zone of bacterial growth inhibition, S.m
Source text: as §1, §3

[7] = system: Lactobacillus acidophilus PCM 210; assay: as above; assay type: cell-based; conditions: for zone of inhibition at 100 µg/disc: Lactobacillus acidophilus, PCM210, 100 μg of compound, read-out: Zone of bacterial growth inhibition, L.a
Source text: as §1, §3

Lactobacillus spp. = assay: as above; assay type: cell-based; conditions: 100 μg of compound; for zone of inhibition at 100 µg/disc: Lactobacillus, read-out: Zone of bacterial growth inhibition, L.spp.
Source text: as §1, §3

[8] = system: Staphylococcus epidermidis ATCC 12228; assay: as above; assay type: cell-based; conditions: for zone of inhibition at 100 µg/disc: Staphylococcus epidermidis, ATCC12228, 100 μg of compound, read-out: Zone of bacterial growth inhibition, S.e
Source text: as §1, §3

[9] = system: Streptococcus sanguinis PCM 2335; assay: as above; assay type: cell-based; conditions: for zone of inhibition at 100 µg/disc: Streptococcus sanguinis, PCM2335, 100 μg of compound, read-out: Zone of bacterial growth inhibition, S.s
Source text: as §1, §3

[10] = system: Lactobacillus acidophilus PCM 210; assay: Broth microdilution MIC; assay type: cell-based; conditions: for MIC: Lactobacillus acidophilus, PCM210, NA means inactive, read-out: Minimum inhibitory concentration (MIC), L. acidophilus
[11] = system: Pseudomonas aeruginosa ATCC 9027; assay: Broth microdilution MIC; assay type: cell-based; conditions: for MIC: Pseudomonas aeruginosa, ATCC9027, NA means inactive, read-out: Minimum inhibitory concentration (MIC), P. aeruginosa
Source text: as §1, §2

[12] = system: Escherichia coli ATCC 25922; assay: Broth microdilution MIC; assay type: cell-based; conditions: NA means inactive; for MIC: Escherichia coli, ATCC25922, broth microdilution, read-out: Minimum inhibitory concentration (MIC), E. coli; for Minimum inhibitory concentration (MIC), E. coli: broth microdilution
Source text: as §1, §2

[13] = system: Staphylococcus aureus ATCC 25923; assay: Broth microdilution MIC; assay type: cell-based; conditions: for MIC: Staphylococcus aureus, ATCC25923, NA means inactive, read-out: Minimum inhibitory concentration (MIC), S. aureus
Source text: as §1, §2

[14] = system: Streptococcus mutans PCM 2502; assay: Broth microdilution MIC; assay type: cell-based; conditions: for MIC: Streptococcus mutans, PCM2502, NA means inactive, read-out: Minimum inhibitory concentration (MIC), S. mutans
Source text: as §1, §2

[15] = system: Staphylococcus epidermidis ATCC 12228; assay: Broth microdilution MIC; assay type: cell-based; conditions: for MIC: Staphylococcus epidermidis, ATCC12228, NA means inactive, read-out: Minimum inhibitory concentration (MIC), S. epidermidis
Source text: as §1, §2

[16] = system: Streptococcus sanguinis PCM 2335; assay: Broth microdilution MIC; assay type: cell-based; conditions: for MIC: Streptococcus sanguinis, PCM2335, NA means inactive, read-out: Minimum inhibitory concentration (MIC), S. sanguinis
Source text: as §1, §2

tested bacterial strains = assay: Disk diffusion, summary over all tested strains; assay type: cell-based; conditions: 100 μg; range over strains
Source text: as §1, with “Mueller–Hinton (M–H) broth and M–H agar (Oxoid Ltd., England) for aerobic strains, and MRS Broth Lactobacillus, MRS Agar Lactobacillus (BioMaxima S.A., Poland), BHI Broth and BHI agar (BioMaxima S.A., Poland) for microaerobic strains were used in the microbial tests.” left out
as §3, with “Each compound (100 µg) was placed on Petri plates with agar medium (previously inoculated with 0.5 McFarland standards with the tested bacterial strains).” left out

MIC [2]	MIC [10]	MIC [11]	MIC [13]	MIC [14]	MIC [15]	MIC [16]	melting point	SMILES	zone of inhibition at 100 µg/disc [3]	zone of inhibition at 100 µg/disc [4]	zone of inhibition at 100 µg/disc [5]	zone of inhibition at 100 µg/disc [6]	zone of inhibition at 100 µg/disc [7]	zone of inhibition at 100 µg/disc (Lactobacillus spp.)	zone of inhibition at 100 µg/disc [8]	zone of inhibition at 100 µg/disc [9]	other results
15.6 to 500 µg/mL	125 µg/mL (≈ 431 µM)	500 µg/mL	31.2 µg/mL	250 µg/mL	15.6 µg/mL	500 µg/mL	182 to 184 °C	O=C(NNC(=S)Nc1ccccc1F)c1ccccn1 [Compound 1, 4-(2-Fluorophenyl)-1-(pyridin-2-yl)carbonylthiosemicarbazide]	12 mm	22 mm	18 mm	10 mm	12 mm	24 mm	26 mm	10 mm	MIC [1]: 7.81 to 500 µg/mL; MIC [12]: 62 to 125 µg/mL; Minimum inhibitory concentration (MIC), E. coli [12]: 62.5 µg/mL
							196 to 198 °C	O=C(NNC(=S)NCCN1CCOCC1)c1ccccn1 [Compound 3, 4-(2-Morpholinoethyl)-1-(pyridin-2-yl)carbonylthiosemicarbazide]	0 mm	0 mm	0 mm	0 mm	0 mm	0 mm	7 mm	0 mm	
15.6 to 500 µg/mL	1000 µg/mL (≈ 2930 µM)	1000 µg/mL	125 µg/mL	250 µg/mL	250 µg/mL	1000 µg/mL		O=C(NNC(=S)Nc1ccc(Cl)cc1Cl)c1ccncc1 [Compound 10, 4-(2,4-Dichlorophenyl)-1-(pyridin-4-yl)carbonylthiosemicarbazide]	0 mm	7 mm	16 mm	28 mm	0 mm	0 mm	13 mm	20 mm	MIC [12]: 1000 µg/mL
15.6 to 500 µg/mL	500 µg/mL (≈ 1570 µM)	> 1000 µg/mL	250 µg/mL	31.2 µg/mL	125 µg/mL	31.2 µg/mL	184 to 186 °C	CSc1ccc(NC(=S)NNC(=O)c2ccccn2)cc1 [Compound 5, 4-(4-Methylthiophenyl)-1-(pyridin-2-yl)carbonylthiosemicarbazide]	0 mm	11 mm	10 mm	0 mm	19 mm	11 mm	10 mm	15 mm	MIC [1]: 7.81 to 500 µg/mL
							202 to 204 °C	O=C(NNC(=S)Nc1ccccc1F)c1ccncc1 [Compound 9, 4-(2-Fluorophenyl)-1-(pyridin-4-yl)carbonylthiosemicarbazide]	0 mm	0 mm	0 mm	0 mm	0 mm	0 mm	0 mm	0 mm	
								CO/N=C(\C(=O)N[C@@H]1C(=O)N2C(C(=O)O)=C(C[N+]3(C)CCCC3)CS[C@H]12)c1csc(N)n1.Cl.[Cl-] [Cefepime, cefepime dihydrochloride, reference compound]									Zone of bacterial growth inhibition, P.a ([3]; 100 μg of compound): 29 mm; Zone of bacterial growth inhibition, E.c ([4]; 100 μg of compound): 35 mm; Zone of bacterial growth inhibition, S.a ([5]; 100 μg of compound): 38 mm; Zone of bacterial growth inhibition, S.m ([6]; 100 μg of compound): 32 mm; Zone of bacterial growth inhibition, L.a ([7]; 100 μg of compound): 31 mm; Zone of bacterial growth inhibition, L.spp. (Lactobacillus spp.): 29 mm; Zone of bacterial growth inhibition, S.e ([8]; 100 μg of compound): 36 mm; Zone of bacterial growth inhibition, S.s ([9]; 100 μg of compound): 29 mm; Minimum inhibitory concentration (MIC), L. acidophilus ([10]; NA means inactive): 3.9 µg/mL; Minimum inhibitory concentration (MIC), P. aeruginosa ([11]; NA means inactive): 0.488 µg/mL; Minimum inhibitory concentration (MIC), E. coli [12]: 0.015 µg/mL; Minimum inhibitory concentration (MIC), S. aureus ([13]; NA means inactive): 0.976 µg/mL; Minimum inhibitory concentration (MIC), S. mutans ([14]; NA means inactive): 0.122 µg/mL; Minimum inhibitory concentration (MIC), S. epidermidis ([15]; NA means inactive): 0.976 µg/mL; Minimum inhibitory concentration (MIC), S. sanguinis ([16]; NA means inactive): 0.122 µg/mL; zones of inhibition, all tested strains (tested bacterial strains): 29–38 mm
							197 to 198 °C	CSc1ccc(NC(=S)NNC(=O)c2ccncc2)cc1 [Compound 8, 4-(4-Methylthiophenyl)-1-(pyridin-4-yl)carbonylthiosemicarbazide]	0 mm	0 mm	0 mm	0 mm	0 mm	0 mm	0 mm	0 mm	

Reference: article PMC4958397, “Synthesis, antibacterial and antiproliferative potential of some new 1-pyridinecarbonyl-4-substituted thiosemicarbazide derivatives” (Medicinal Chemistry Research, 2016)
